This note sets out measurements from patent US20050170966A1, “Surfactants and surfactant compositions” (priority 2002, published 2005).

In the test the test system is mixtures of weeds: Cockspur (Echinochloa crus-galli), Fat-hen (Chenopodium album), Smartweed (Polygonum persicaria). The test can be described thus: Field trial: adjuvant effect on Glyphosate herbicidal activity on mixed weed plots. The settings on record: glyphosate 1080 g(a.e.).ha^-1, adjuvant 540 g.ha^-1 (2:1). In kind it is in vivo. How it is done: This Example tests the effect of adjuvants on Glyphosate herbicidal activity under field conditions. The herbicide was applied to test plots of weeds at a rate of 1080 g(a.e.).ha^−1 (350 l.ha^−1 of spray containing 3.086 g.l^−1 a.e.) with a weight ratio of active to adjuvant of 2:1=540 g(adjuvant).ha^−1. Spray plots were treated with the herbicide formulations, one of each of four adjuvants of the invention (SE1, SE2, SE3, and SE4) a fatty amine ethoxylate (FAE1) for comparison, or left untreated as controls (no weed control). The spray plots were in a completely randomised block design with 3 replicates of 3×5 m plots. the sprayed plots were sprayed using a compressed-air AZO sprayer at a pressure of 2.5 bar, equipped with Teejet XR80015VS nozzles. During this trial, it rained for about 15 minutes about 2 hours after spraying, giving a good indication of the rainfastness off the formulations tested.
The test plots used mixtures of the following weeds at the 2 to 4 leaf stage:
The results of spraying were evaluated by visual comparison with untreated control blocks 12, 20 and 35 days after treatment (DAT), assessing chlorosis (chlor) and growth inhibition (inhib) as percentages with 0=no effect and 100=complete kill as compared with the untreated controls.

Where [1] appears, read: 12 DAT, 0=no effect, 100=complete kill.

For “1-[Bis-(2-hydroxyethyl)-amino]-2-hydroxypropane-3-(stearyl 25-ethoxylate) [SE4]”, the “inhib (%) growth inhibition” value stood at 62% (12 DAT), 75% (20 DAT) and 68% (35 DAT). In addition, the “chlor (%) chlorosis” value reads like this: under setting [1], 63%; (20 DAT) 75%; (35 DAT) 65%.

Regarding “1-[Diethylamino]-2-hydroxypropane-3-(Alc1 15-ethoxylate) [SE1]”, the “inhib (%) growth inhibition” value reads like this: (12 DAT) 67%; (20 DAT) 78%; (35 DAT) 78%. Besides, the “chlor (%) chlorosis” value runs as follows: under setting [1], 62%; (20 DAT) 77%; (35 DAT) 78%.

In the case of `CCCCCCCCCCCCCCCCCCOCCOCCOCCOCCOCCOCCOCCOCCOCCOCCOCCOCCOCCOCCOCCOCCOCCOCCOCCOCCOCCOCCOCCOCCOCCOCC(O)CN(CC)CC` (stereo not drawn) [SE3, 1-diethylamino-2-hydroxypropane-3-(stearyl 25-ethoxylate)], the “inhib (%) growth inhibition” value runs as follows: (12 DAT) 63%; (20 DAT) 72%; (35 DAT) 75%. For the same compound, the “chlor (%) chlorosis” value was 62% under setting [1], 72% (20 DAT) and 68% (35 DAT).
